The record followed here is patent publication US20040002441A1, “Recombination modulators and methods for producing and using the same” (priority 2000, published 2004).

pEC50, pIC50: −log10 of the molar value. Values joined by “and” are separate entries in the source; they are usually repeats but may differ in a detail not shown here. Equal entries are not always repeated. “Also recorded” adds a separate entry of the source. Where no end group is shown, it is not given here.

Test [1] addresses bacteriophage λ Integrase (Int) (Escherichia phage lambda, UniProt P03700). Briefly: Int-mediated excisive recombination. The class given is biochemical. The following applies: for pIC50: IC50, inhibition of excisive recombination, excision pathway. The protocol: FIG. 11 depicts effect of peptide KWWCRW (diamonds) and peptide KWWWRW (squares) on the remaining 3 pathways of Int-mediated recombination. Recombination extents were normalized to the amount of recombination in untreated reactions and expressed as relative % recombination. A. Effect of peptides on integrative recombination (IC50 values for both peptides are roughly 0.2 μM). Reactions were assembled as for bent-L recombination except that they were incubated at room temperature, the substrates were a supercoiled plasmid (4.8 kb) carrying attP and ^32P labeled 91 bp PCR fragment encoding attB. […] The recombination substrates were PCR fragments encoding the attL (^32P-labeled) and attR sites. Reactions contained 50 NM Xis in addition to Int and IHF (37 nM), as well as 100 ng salmon sperm DNA, and were incubated at room temperature. C. Effect of peptides on straight-L recombination (IC50 values for peptide KWWCRW is 0.06 μM, while for peptide KWWWRW is slightly over 0.1 μM). Reactions were assembled as for bent-L recombination except that they were incubated at room temperature; the substrates were two PCR fragments, one of which was ^32P-labeled and 187 bp, the other of which was unlabeled and 496 bp.
Int Assays. Site-specific recombination and gel mobility shift assays were performed as described (Segall, 1998). Briefly, reactions were performed in a total volume of 10 or 20 μl and typically contained 1-2 nM radiolabeled att site as specified, 4 nM unlabeled att site, 100-300 ng salmon sperm DNA as nonspecific competitor, 44 mM Tris-Ci (pH 8.0), 60 mM KCl, 0.05 mg/ml bovine serum albumin, 7 mM Tris borate (pH 8.9), 5 mM spermidine, 1.3 mM EDTA, and 14.6% v/v glycerol. […] Dried gels were visualized and quantitated using a Molecular Dynamics PhosphorImager.
Excision reactions: Reactions were performed in 10 μL volume containing 20 mM Tris-HCl pH 8, 5 mM spermidine, 0.2 μg BSA, 75 ng to 0.15 μg salmon sperm DNA, 30 mM KCl, and TE (recombination mix). […] All gel images were visualized with a PhosphorImager (Molecular Dynamics) and quantitated with ImageQuant software (Molecular Dynamics).
Target sequence in this assay (P03699 whole entry partner, one chain of several, the tested form may be a part): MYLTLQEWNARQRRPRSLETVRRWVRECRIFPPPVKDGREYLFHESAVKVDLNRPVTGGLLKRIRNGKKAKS

In test [2] the target is T1, bacteriophage λ Integrase (Int) (Escherichia phage lambda, UniProt P03700).
T1 sequence (P03700 1-356): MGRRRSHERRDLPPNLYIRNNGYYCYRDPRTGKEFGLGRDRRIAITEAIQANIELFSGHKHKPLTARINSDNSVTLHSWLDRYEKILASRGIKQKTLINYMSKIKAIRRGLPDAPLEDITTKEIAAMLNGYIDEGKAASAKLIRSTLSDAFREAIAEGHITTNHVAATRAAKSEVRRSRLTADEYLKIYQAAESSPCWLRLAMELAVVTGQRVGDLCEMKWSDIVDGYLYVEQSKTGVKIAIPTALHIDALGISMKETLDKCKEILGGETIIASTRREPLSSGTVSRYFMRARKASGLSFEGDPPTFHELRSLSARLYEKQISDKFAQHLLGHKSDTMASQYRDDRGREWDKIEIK
T1 sequence (P0A6X7 1-99 partner): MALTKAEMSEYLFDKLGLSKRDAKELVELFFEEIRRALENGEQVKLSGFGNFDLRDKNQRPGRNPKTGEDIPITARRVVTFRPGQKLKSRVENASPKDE
T1 sequence (P0A6Y1 1-94 partner): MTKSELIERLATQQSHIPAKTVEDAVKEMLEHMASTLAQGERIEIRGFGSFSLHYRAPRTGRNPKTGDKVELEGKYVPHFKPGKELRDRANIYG
Briefly: Int-mediated bent-L recombination. The class given is biochemical. The following applies: for rank of potency at inhibiting recombination among individual peptides: FIG. 6A. The protocol:
Recombination Assays. Recombination assays were performed as described (Segall, 1998). Briefly, reactions were performed in a total volume of 10 μl and typically contained 1 nM radiolabeled att site as specified, 4 nM unlabeled att site, 50 ng salmon sperm DNA as nonspecific competitor, 44 mM Tris-Cl (pH 8.0), 60 mM KCl, 0.05 mg/ml bovine serum albumin, 7-11 mM Tris borate (pH 8.9), 5 mM spermidine, 1.3 mM EDTA, and 14.6% v/v glycerol. Int and IHF were present at 55 nM and 35 nM final concentrations respectively. During screening, peptide libraries were incubated with Int on ice for 20 minutes (in the same buffer), and the mix was then added to the rest of the recombination reaction. Final concentrations of peptides are specified for each experiment. Reactions were incubated for 60-90 minutes at 30° C. or 37° C., were stopped with 0.2× volume of 2% SDS, layered onto 5% polyacrylamide Tris/SDS gels, and electrophoresed in 1× Tris Tricine SDS buffer at 100 mA (Segall, 1998). Dried gels were visualized and quantitated using a Molecular Dynamics PhosphorImager.
Int Assays. Site-specific recombination and gel mobility shift assays were performed as described (Segall, 1998). Briefly, reactions were performed in a total volume of 10 or 20 μl and typically contained 1-2 nM radiolabeled att site as specified, 4 nM unlabeled att site, 100-300 ng salmon sperm DNA as nonspecific competitor, 44 mM Tris-Ci (pH 8.0), 60 mM KCl, 0.05 mg/ml bovine serum albumin, 7 mM Tris borate (pH 8.9), 5 mM spermidine, 1.3 mM EDTA, and 14.6% v/v glycerol. Any deviation from this formulation is noted in the figure legends. Gel shift reactions were incubated for 90 minutes at 37° C., layered without loading dyes onto 5% native polyacrylamide gel (29 acrylamide: 1 bis-acrylamide) and electrophoresed in 0.5× Tris borate EDTA buffer. Recombination reactions were stopped with 0.2× volume of 2% SDS, layered onto 5% polyacrylamide Tris/SDS gels, and electrophoresed in 1× Tris Tricine SDS buffer at 100 mA (Segall, 1998). Dried gels were visualized and quantitated using a Molecular Dynamics PhosphorImager. […]

[3] abbreviates: IC50, inhibition of bent-L recombination, bent-L pathway.

What is called pIC50 is the negative decadic logarithm of the IC50, by convention in mol/L. As for KWWWRW-NH2 [Peptide 56, KWWWRW], the results for the pIC50 in test [1] and in test [2] (setting [3]) were about 5.96 and about 7.40, respectively. Further, the “rank of potency at inhibiting recombination among individual peptides” value in test [2] (dose response curves) is “most potent at inhibiting recombination”.

As for KWWCRW-NH2 [Peptide 59, KWWCRW], the pIC50 is 5.96 and ~5.96 in test [1]; > 7.00 and 7.70 in test [2] (setting [3]). Also, the figures for the effect on recombination result in test [2] (1 μM peptide) and in test [2] (10 μM peptide) were “almost complete block on recombination” and “inhibited completely”, respectively. For the same substance, the “rank of potency at inhibiting recombination among individual peptides” value in test [2] (dose response curves) is listed as “most potent at inhibiting recombination”.

As a reminder, the pEC50 is the EC50 on a negative log10 scale, so that one unit is a factor of ten. For the substance WKHYNY-NH2 [Peptide 52, WKHYNY], the negative-log EC50 (pEC50) in test [1] was 4.70 to 5.00; in test [2], 6.40 to 6.70. For the same substance, the effect on recombination result in test [2] (100 μM, the highest peptide concentration tested) is given as “does not inhibit it completely; also recorded: does not inhibit recombination completely”. The pIC50 in test [2] (IC50, accumulation of Holliday junctions, bent-L pathway) is 6.70. The “peptide concentration at which the most HJs accumulate” value in test [2] (bent-L pathway) was “about 2 μM”. In test [2] (dose response curves, FIG. 6B), the “rank of potency at causing the accumulation of HJs among individual peptides” value was “most potent at causing the accumulation of HJs”.
